Results taken from paper PMC12380353, “MK-8527 is a novel inhibitor of HIV-1 reverse transcriptase translocation with potential for extended-duration dosing” (PLOS Biology, 2025).
“And” between values parts separate entries of the source, which are not always exact repeats. Equal values may be shown once.

Legend:
[1] = biological target: T1, HIV-1 RT (Human immunodeficiency virus type 1 group M subtype B, UniProt P04585); assay: HIV-1 RT biochemical (ECL) assay; conditions: purified recombinant RT, n = 8; read-out: IC50, RNA-dependent DNA polymerization
T1 construct: Full-length WT RT protein was expressed in Escherichia coli BL21(DE3) cells; made in house; host or cells: Escherichia coli BL21(DE3)
Protocol: Full-length WT RT protein was expressed in Escherichia coli BL21(DE3) cells and purified as described previously. The electrochemiluminescence (ECL) RT biochemical assay was performed based on the previously described protocol.
Briefly, the heterodimeric nucleic acid substrate used in the HIV-1 RT polymerase reactions was generated by annealing biotinylated DNA primer to a 500-nucleotide RNA template. The HIV-1 RT enzyme (final concentration of 50 pM) was combined with an inhibitor or DMSO (10% DMSO in the final reaction mixture) in assay buffer containing 62.5 mM Tris-HCl, pH 7.8, 1.25 mM dithiothreitol, 7.5 mM MgCl2, 100 mM KCl, 0.03% 3-[(3-cholamidopropyl)-dimethylammonio]-1-propanesulfonate, and 0.125 mM ethylene glycol tetraacetic acid). This mixture was preincubated for 30 min at room temperature in microtiter plates. The polymerization reaction was initiated by the addition of template:primer substrate (final concentration, 16.6 nM), and dNTPs (final concentrations were 2 μM for deoxycytidine triphosphate [dCTP], deoxyguanosine triphosphate [dGTP], and dATP and 66.6 nM for ruthenylated deoxyuridine triphosphate [Ru-dUTP]). […] The mixtures were incubated at room temperature for 60 min prior to the quantification of the reaction product via an ECL 6000 imager instrument. […]

[2] = MK-8527-TP in PBMCs of rhesus monkeys after oral dosing; format: in vivo; conditions: oral MK-8527 50 mg/kg
Protocol: The intracellular concentration of MK-8527-TP was determined by an LC–MS/MS assay. LC–MS/MS analysis was performed on a Acquity UPLC system (Waters Corporation; Milford, MA, USA) interfaced to an API-5500 mass spectrometer using a TurboIonSpray source (Sciex, Framingham, MA, USA) in positive ionization mode. Separation of MK-8527-TP was achieved on a BioBasic AX column (2.1 × 100 mm, 5 µm; Thermo Fisher Scientific) at 45 °C using gradient elution with mobile phases consisting of 70% water to 30% acetonitrile containing 10 mM ammonium acetate (solvent A) and 70% water to 30% acetonitrile containing 20 mM ammonium acetate, 1.5% ammonium hydroxide (NH4OH) (v/v), and 10% isopropyl alcohol (IPA) (v/v) (solvent B) at a flow rate of 0.75 mL/min. The chromatography was run as follows: The column was equilibrated with 97% A, and after sample injection 97% A was maintained for 0.10 min before concentration was increased linearly to 100% B until 3.00 min, followed by a hold at 100% B until 3.50 min. The column was then washed by alternating linear ramps from 97% A to 100% B up to 4.10 min, then returned to the initial conditions at 4.30 min and kept for an additional 1.20 min. The total run time was 5.50 min. Quantification was performed by monitoring the transitions of m/z 548.9 to 169.1 for MK-8527-TP. The method was linear across a concentration range of 1–5,000 nM in cell samples across species. The method’s lower limit of quantification was between 1 and 5 nM depending on the assay volumes of cell suspension. Analyte concentrations in cell samples across species were determined from the standard curves using linear regression with 1/×2 weighting.
PBMCs were isolated from heparinized monkey blood using the following protocol. To begin, blood samples (approximately 12–18 mL) were diluted with an equal volume of calcium- and magnesium-free PBS at pH 7.4 and gently mixed. Separation of PBMCs from the diluted blood was achieved using 50 mL AccuSpin tubes loaded with Histopaque-1077 lymphocyte separation medium (both: Thermo Fisher Scientific). Samples were centrifuged at 800g for 15 min at room temperature. The resulting plasma/buffer supernatant was removed without disturbing the PBMC interface. Next, the PBMC interface was removed with a pipette, and the cells were washed by the addition of calcium- and magnesium-free PBS (pH 7.4) to a final volume of 15 mL. PBMCs were harvested by centrifugation at 250g for 20 min at room temperature. The supernatant was decanted with care taken not to disturb the PBMC pellet, and the wash step was repeated once (250 × g for 15 min). After the second wash, the cell pellet was resuspended in 7 mL of calcium- and magnesium-free PBS, and an aliquot was removed for cell counting. PBMCs were harvested from the remaining cell suspension by centrifugation at 250g for 15 min at room temperature. The supernatant was removed, and the cell pellet was resuspended in 0.1–0.3 mL of methanol and water at a 70:30 ratio. Cell suspensions were stored at […] prior to analysis.

SMILES: C#C[C@]1(COP(=O)(O)OP(=O)(O)OP(=O)(O)O)O[C@@H](n2ccc3c(N)nc(Cl)nc32)C[C@@H]1O [MK-8527-TP]
- IC50 [1]: 813 ± 238 nM
- Arithmetic Mean Concentration in PBMCs ([2]; 2 hr): 11.11 µM
- Concentration in PBMCs, individual subjects ([2]; 2 hr): 18.77 µM and 6.47 µM and 11.31 µM
- Arithmetic Mean Concentration in PBMCs ([2]; 24 hr): 15.02 µM
- Concentration in PBMCs, individual subjects ([2]; 24 hr): 15.33 µM and 20.00 µM and 11.04 µM
- Arithmetic Mean Concentration in PBMCs ([2]; 72 hr): 2.78 µM
- Concentration in PBMCs, individual subjects ([2]; 72 hr): 5.67 µM and 2.28 µM and 1.67 µM
- Arithmetic Mean Concentration in PBMCs ([2]; 168 hr): 0.66 µM
- Concentration in PBMCs, individual subjects ([2]; 168 hr): 1.83 µM and 0.38 µM and 0.40 µM
